The test system of test [1] is carrageenan-induced paw edema. The test can be described thus: Rat Paw Edema Assay. Format: in vivo, Male Sprague-Dawley rats. The settings on record: po, paw volume 3 hr, Table IV. Here is the method: Male Sprague-Dawley rats (150-200 g) are fasted overnight and are given, po, either vehicle (1% methocel or 5% Tween 80) or a test compound. One hr later, a line is drawn using a permanent marker at the level above the ankle in one hind paw to define the area of the paw to be monitored. The paw volume (V0) is measured using a plethysmometer (Ugo-Basile, Italy) based on the principle of water displacement. The animals are then injected subplantarly with 50 μl of 1% carrageenan solution in saline (FMC Corp, Maine) into the paw using an insulin syringe with a 25-gauge needle (i.e. 500 μg carrageenan per paw). Three hr later, the paw volume (V3) is measured and the increases in paw volume (V3 -VO) are calculated. The animals are sacrificed by CO2 asphyxiation and the absence or presence of stomach lesions scored. Data is compared with the vehicle-control values and percent inhibition calculated. All treatment groups are coded to eliminate observer bias.

The next test deals with T1, CHO [hCOX-1] (Homo sapiens, UniProt P23219).
T1 construct: expressed in transfected cells; host or cells: Chinese hamster ovary (CHO) cells, vector pCDNAIII
The test can be described thus: Whole Cell Assay for COX-1 using CHO Transfected Cell Lines. It is filed as cell-based. The settings on record: CHO [hCOX-1] cells, 0.5 μM AA, PGE2. Here is the method: Chinese hamster ovary (CHO) cell lines which have been stably transfected with an eukaryotic expression vector pCDNAIII containing either the human COX-1 or COX-2 cDNA's are used for the assay. These cell lines are referred to as CHO [hCOX-1] and CHO [hCOX-2], respectively. […] Cells (0.3×10^6 cells in 200 μl) are preincubated with 3 μl of the test drug or DMSO vehicle for 15 min at 37° C. […] Cells are then challenged in the presence or absence of drug with the AA/HBSS solution to yield a final concentration of 0.5 μM AA in the CHO[hCOX-1] assay and a final concentration of 10 μM AA in the CHO[hCOX-2] assay. […] The samples are centrifuged at 300×g at 4° C. for 10 min, and an aliquot of the clarified supernatant is appropriately diluted for the determination of PGE2 levels using an enzyme-linked immunoassay for PGE2 (Correlate PGE2 enzyme immunoassay kit, Assay Designs, Inc.). Cyclooxygenase activity in the absence of test compounds is determined as the difference in PGE2 levels of cells challenged with arachidonic acid versus the PGE2 levels in cells mock-challenged with ethanol vehicle. Inhibition of PGE2 synthesis by test compounds is calculated as a percentage of the activity in the presence of drug versus the activity in the positive control samples.

In test [2] the target is T2, COX-1 (Homo sapiens, UniProt P23219). The test can be described thus: Assay of COX-1 Activity from U937 Cell Microsomes (U937). Format: biochemical. The arrangement: human U-937 cells (which specifically express COX-1); endogenous in cells; host or cells: microsomes of U937 cells. The conditions noted are these: U937, PGE2; Table III. On the procedure:
Compounds are tested as inhibitors of cyclooxygenase activity in whole cell cyclooxygenase assays. Both of these assays measure prostaglandin E2 synthesis in response to arachidonic acid, using a radioimmunoassay. Cells used for these assays are human osteosarcoma 143 cells (which specifically express COX-2) and human U-937 cells (which specifically express COX-1). In these assays, 100% activity is defined as the difference between prostaglandin E2 synthesis in the absence and presence of arachidonate.
For cyclooxygenase assays, osteosarcoma cells are cultured in 1 mL of media in 24-well multidishes (Nunclon) until confluent (1-2×10^5 cells/well). […] All assays are performed in triplicate. […] Arachidonic acid (peroxide-free, Cayman Chemical) is prepared as a 10 mM stock solution in ethanol and further diluted 10-fold in HBSS. An aliquot of 10 μL of this diluted solution is added to the cells to give a final arachidonic acid concentration of 10 μM. Control samples are incubated with ethanol vehicle instead of arachidonic acid. Samples are again gently mixed and incubated for a further 10 min. at 37° C. For osteosarcoma cells, reactions are then stopped by the addition of 100 μL of 1N HCl, with mixing and by the rapid removal of the solution from cell monolayers. For U-937 cells, reactions are stopped by the addition of 100 μL of 1N HCl, with mixing.
U 937 cells are pelleted by centrifugation at 500×g for 5 min and washed once with phosphate-buffered saline and repelleted. Cells are resuspended in homogenization buffer consisting of 0.1 M Tris-HCl, pH 7.4, 10 mM EDTA, 2 μg/ml leupeptin, 2 μg/ml soybean trypsin inhibitor, 2 μg/ml aprotinin and 1 mM phenyl methyl sulfonyl fluoride. The cell suspension is sonicated 4 times for 10 sec and is centrifuged at 10,000×g for 10 min at 4° C. The supernatant is centrifuged at 100,000×g for 1 hr at 4° C. The 100,000×g microsomal pellet is resuspended in 0.1 M Tris-HCl, pH 7.4, 10 mM EDTA to approximately 7 mg protein/ml and stored at -80° C.
Assays are performed in duplicate in a final volume of 250 μl. […]

The target in test [3] is T2, COX-1. As to the kind of experiment: Human Whole Blood Assay, COX-1 (Clotting-induced TxB2 Production). Set-up: endogenous in cells. Format: cell-based. The settings on record: clotting-induced TxB2, 1 hour, Table III, read-out: COX-1 (IC50) HWB. An excerpt: As well, platelets in whole blood contain a large amount of the COX-1 enzyme. Immediately following blood clotting, platelets are activated through a thrombin-mediated mechanism. […] Therefore, the degree of selectivity by the test compound can be determined by measuring the levels of PGE2 after LPS induction (COX-2) and TxB2 following blood clotting (COX-1) in the same assay.
B. COX-1 (Clotting-induced TxB2 Production)
Fresh blood is collected into vacutainers containing no anticoagulants. Aliquots of 500 μL are immediately transferred to siliconized microcentrifuge tubes preloaded with 2 μL of either DMSO or a test compound at final concentrations varying from 10 nM to 30 μM. The tubes are vortexed and incubated at 37° C. for 1 hour to allow blood to clot. At the end of incubation, serum is obtained by centrifugation (12,000×g for 5 min.). A 100 μL aliquot of serum is mixed with 400 μL of methanol for protein precipitation.

Data on 8 compounds can be found in US6020343A, “(Methylsulfonyl)phenyl-2-(5H)-furanones as COX-2 inhibitors” (Merck Frosst Canada, Inc., priority 1998, dated 2000).

T1 sequence (P23219 24-599): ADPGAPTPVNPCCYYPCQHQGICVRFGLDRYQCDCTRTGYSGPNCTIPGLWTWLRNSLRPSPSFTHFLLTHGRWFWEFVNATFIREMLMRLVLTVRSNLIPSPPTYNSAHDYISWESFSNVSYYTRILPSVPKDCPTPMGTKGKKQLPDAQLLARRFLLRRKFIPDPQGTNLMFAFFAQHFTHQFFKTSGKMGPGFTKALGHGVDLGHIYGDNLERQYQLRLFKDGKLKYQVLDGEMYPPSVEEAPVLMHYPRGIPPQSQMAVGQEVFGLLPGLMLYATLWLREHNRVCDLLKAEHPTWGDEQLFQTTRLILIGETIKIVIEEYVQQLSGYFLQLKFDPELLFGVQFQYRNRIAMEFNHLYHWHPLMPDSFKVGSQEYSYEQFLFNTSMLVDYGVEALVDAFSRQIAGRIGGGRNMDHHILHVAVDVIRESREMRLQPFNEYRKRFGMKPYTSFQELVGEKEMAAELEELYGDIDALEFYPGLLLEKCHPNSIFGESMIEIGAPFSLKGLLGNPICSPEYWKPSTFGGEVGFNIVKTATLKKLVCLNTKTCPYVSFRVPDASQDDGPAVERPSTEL
T2 sequence (P23219 24-599): as above

What is called ED50 is the dose at which the effect has come halfway, by size or by number of responders. Low readings indicate an effect at a small dose, high ones a need for a large dose. As usually defined, the IC50 is the midpoint of a concentration-inhibition curve. With `CC1(C)OC(=O)C(Oc2ccc(F)cn2)=C1c1ccc(S(C)(=O)=O)cc1` [Example 58], in test [1], the ED50 came to 0.32 mg/kg. The same compound came in with an IC50 on CHO [hCOX-1] (Table IV) greater than 50 µM.
As to `CC1(C)OC(=O)C(Oc2cc(F)cc(F)c2)=C1c1ccc(S(C)(=O)=O)cc1` [Example 3], at COX-1 [2], half-maximal inhibition (IC50) was put at 1 µM.
`CC1(C)OC(=O)C(Oc2ccc(Cl)cc2)=C1c1ccc(S(C)(=O)=O)cc1` [Example 6, 3-(4-Chlorophenoxy)-5,5-dimethyl-4-(4-(methylsulfonyl)phenyl)-5H-furan-2-one]: the IC50 at COX-1 [3] is 1.8 µM.
As for `CC1(C)OC(=O)C(Oc2cccc(F)c2)=C1c1ccc(S(C)(=O)=O)cc1` [Example 2, 3-(3-Fluorophenoxy)-5,5-dimethyl-4-(4-(methylsulfonyl)phenyl)-5H-furan-2-one], at COX-1 [3], the IC50 was 23 µM.
On CHO [hCOX-1] (Table III), `CC1(C)OC(=O)C(C(=O)c2ccccc2)=C1c1ccc(S(C)(=O)=O)cc1` [Example 19b, 3-Benzoyl-5,5-dimethyl-4-(4-(methylsulfonyl)phenyl)-5H-furan-2-one] returned an IC50 greater than 50 µM.
`CS(=O)(=O)c1ccc(C2=C(Sc3ccccc3)C(=O)OC2)cc1` [Example 15, 3-Phenylthio-4-(4-(methylsulfonyl)phenyl)-5H-furan-2-one] returned an IC50 against COX-1 [2] greater than 10 µM.
As for `CC1(C)OC(=O)C(Oc2ccc(Cl)cn2)=C1c1ccc(S(C)(=O)=O)cc1` [Example 25, 3-(5-Chloro-2-pyridyloxy)-5,5-dimethyl-4-(4-(methylsulfonyl)phenyl)-5H-furan-2-one], at COX-1 [2], half-maximal inhibition (IC50) required 3 µM.
With `CC1(C)OC(=O)C(Oc2ccc(Br)cn2)=C1c1ccc(S(C)(=O)=O)cc1` [Example 108], the IC50 on CHO [hCOX-1] (Table IV) is greater than 50 µM.
